Columns and labels:
Assay type in all cases: cell-based
Proteus mirabilis = assay: MIC broth microdilution, Proteus mirabilis isolate; settings: isolate 1159308, CMY-DHA, LTV-17 alone
Procedure: (§1) Bacterial isolates: Representative resistant strains of Escherichia coli, Citrobacter freundii, Enterobacter cloacae, Klebsiella pneumoniae, and Proteus mirabilis harboring class-C β-lactamase producers were used to test for the synergistic effect of adding a β-lactamase inhibitor (II^j) to the antibiotic LTV-17 (I) (Table 1).
(§2) Minimum inhibitory concentration (MIC) test procedure: All antibiotics were tested by both the broth microdilution methods according to the Clinical and Laboratory Standards Institute (CLSI) recommendations (M07), and a modified CLSI method that included iron-depleted CA-MHB protocol. The MIC was defined as the lowest concentration of the antibiotic to produce clear wells in the 96-well plates. MIC interpretations were based on the CLSI M100-S23 (2013) and European Committee on Antimicrobial Susceptibility Testing (EUCAST; 2013) breakpoint criteria. Synergistic activity was calculated based on the number of two-fold dilution reduction of the MIC using LTV-17 (I) plus β-lactamase inhibitor Avibactam (II^j) compared to MIC of LTV-17 (I) tested alone against the same strains. The higher the number of two-fold reduction, the stronger the synergy is.
(§3) Avibactam was tested at a fixed concentration of 4 μg/mL.

Klebsiella pneumoniae = assay: MIC broth microdilution, Klebsiella pneumoniae isolate; settings: isolate 1167846, CMY-DHA, LTV-17 alone
Procedure: as §1, §2, §3

Escherichia coli = assay: MIC broth microdilution, Escherichia coli isolates; settings: LTV-17 alone
Procedure: as §1, §2, §3

[1] = system: Enterobacter cloacae species complex; assay: MIC broth microdilution, Enterobacter cloacae species complex isolates; settings: LTV-17 alone
Procedure: as §1, §2, §3

[2] = system: Citrobacter freundii species complex; assay: MIC broth microdilution, Citrobacter freundii species complex isolate; settings: isolate 1056585, Elevated AmpC, LTV-17 alone
Procedure: as §1, §2, §3

CC(C)(O/N=C(\C(=O)N[C@H]1CON(C2(C(=O)O)C[C@H](N3C(=O)c4cc(O)c(O)cc4C3=O)C(=O)O2)C1=O)c1csc(N)n1)C(=O)O (stereo partly drawn) [LTV-17, (4S)-2-[(4S)-4-{[(2Z)-2-(2-amino-1,3-thiazol-4-yl)-2-{[(2-carboxypropan-2-yl)oxy]imino}acetyl]amino}-3-oxo-1,2-oxazolidin-2-yl]-4-(5,6-dihydroxy-1,3-dioxo-1,3-dihydro-2H-isoindol-2-yl)-5-oxooxolane-2-carboxylic acid]
MIC (Proteus mirabilis): 4 mg/L | MIC (Klebsiella pneumoniae): 1 mg/L | MIC (Escherichia coli; isolate 827002, Elevated AmpC): 0.03 mg/L | MIC (Escherichia coli; isolate 841741, Elevated AmpC): 0.25 mg/L | MIC (Escherichia coli; isolate 850348, Elevated AmpC): 1 mg/L | MIC (Escherichia coli; isolate 850361, Elevated AmpC): 0.06 mg/L | MIC (Escherichia coli; isolate 1043714, Elevated AmpC): 0.06 mg/L | MIC (Escherichia coli; isolate 1047951, Elevated AmpC): 0.12 mg/L | MIC (Escherichia coli; isolate 1152443, CMY-DHA): 0.5 mg/L | MIC (Escherichia coli; isolate 1160345, CMY-DHA): 0.5 mg/L | MIC (Escherichia coli; isolate 1160670, CMY-DHA): 0.12 mg/L | MIC (Escherichia coli; isolate 1165173, CMY-DHA): 0.25 mg/L | MIC (Escherichia coli; isolate 1165490, CMY-DHA): 0.5 mg/L | MIC (Escherichia coli; isolate 1165546, CMY-DHA): 0.5 mg/L | MIC (Escherichia coli; isolate 1167103, CMY-DHA): 0.5 mg/L | MIC (Escherichia coli; isolate 1167174, CMY-DHA): 4 mg/L | MIC ([1]; isolate 552115, Elevated AmpC): 2 mg/L | MIC ([1]; isolate 1057610, Elevated AmpC): 0.25 mg/L | MIC ([1]; isolate 1083996, Elevated AmpC): 0.5 mg/L | MIC [2]: 0.5 mg/L
